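Cells were grown in 96-well plates and exposed to each compound for 48 hours at five concentrations; endpoints were interpolated linearly between bracketing concentrations, or set to the highest concentration if not reached. GI50 = concentration required for 50% inhibition of growth. TGI marks complete inhibition of growth.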 Bounds are passed on as bounds.

Holding throughout (test): DTP human tumour cell line panel, 48 h
In test [1] the test system is 786-0 renal.
The test system of test [2] is HOP-62 NSCLC.
Test [3] relates to MDA-MB-435.
In test [4] the test system is MALME-3M melanoma.
For test [5], the system named is TK-10 renal.
Test [6] concerns SK-OV-3 ovarian.
Test [7] deals with HCT-116 colon.
Test [8] concerns SNB-19 CNS.
The test system of test [9] is SF-539 CNS.
The test system of test [10] is HS 578T breast.

As usually defined, the GI50 is the concentration at which growth is held to half of that of the control. By TGI is commonly meant the concentration giving total growth inhibition. A low value points to more potent growth arrest. As to `N#CC(C#N)=CN1CCN(C(=O)c2ccccc2)C1=S`, the GI50 was 38.9 µM in test [1]; more than 100 µM in [2]; 38.8 µM in test [3]; 10.2 µM in test [4]; 23.3 µM in [5]; 66.7 µM in test [6]. The GI50 in test [7] was 34 µM; in test [8], more than 100 µM. Besides, the TGI is more than 100 µM in test [1]; more than 100 µM in test [2]; more than 100 µM in test [3]; 64.1 µM in [4]; 75.1 µM in [5]; more than 100 µM in [6]. Further, the TGI in test [7] and in test [8] was more than 100 µM each time.
In the case of `O=C(O)c1ccc(NS(=O)(=O)c2cccc3cccnc23)cc1`, the GI50 in test [9], in test [1], in [2], in [3], in test [4] and in test [10] was more than 100 µM each time. Also, the GI50 in [6], in [7] and in [8] was more than 100 µM each time. Besides, the TGI in test [9], in test [1], in test [2], in [3], in test [4] and in test [10] was more than 100 µM throughout. Besides, the concentration for total growth inhibition (TGI) in test [6], in [7] and in test [8] was more than 100 µM throughout.
In the case of `Cc1c(Cl)cccc1NC(=O)c1sc2nc3c(cc2c1N)CCCCCC3`, the GI50 in test [9] is 0.168 µM; in [1] it was 0.223 µM; in test [2], 0.326 µM; in test [3], 0.0761 µM; in test [10] it was 0.204 µM; in test [5], 10.7 µM. In addition, the figures for the 50% growth inhibitory concentration (GI50) in [6], in test [7] and in test [8] were 0.279 µM, 0.195 µM and 0.258 µM, respectively. In addition, the TGI is 7.93 µM in [9]; 14.7 µM in [1]; 19.8 µM in test [2]; 0.251 µM in test [3]; 22.9 µM in test [10]; 47.4 µM in test [5]. The TGI in test [6] was 26.5 µM; in test [7] it was more than 50 µM; in test [8], 28.5 µM.
For `NC(=NC1CCCCCC1)c1ccc(N2CCN(c3ccc(C(N)=NC4CCCCCC4)cc3)CC2)cc1`, the GI50 is 10.7 µM in [1]; 8.48 µM in [2]; 7.85 µM in test [3]; 14.6 µM in test [5]; 15.7 µM in test [6]; 10.2 µM in [7]. In addition, the GI50 in test [8] is 10.1 µM. In addition, the TGI in test [1] was 43.9 µM; in test [2], 22.6 µM; in [3] it was 26.1 µM; in test [5] it was more than 50 µM; in test [6], 44.9 µM; in test [7], 48.8 µM. This molecule also came in with a TGI in test [8] of 27.1 µM.
Turning to `Cl.Fc1c[c-]c(-c2ccccn2)c(F)c1.[Pt].c1ccc([PH+](CC[PH+](c2ccccc2)c2ccccc2)c2ccccc2)cc1`, the GI50 in [9] was 0.164 µM; in test [1] it was 0.231 µM; in test [2], 0.186 µM; in test [3] it was 0.127 µM; in test [4] it was 0.061 µM; in [5], 0.157 µM. Further, the GI50 in test [6] was 0.184 µM; in test [8] it was 0.0656 µM. For the same molecule, the TGI in [9] came out at 0.976 µM; in test [1], 1.06 µM; in test [2], 0.688 µM; in [3], 0.51 µM; in test [4] it was 0.409 µM; in test [5] it was 1.13 µM. Further, the TGI in [6] is 0.754 µM; in test [8], 1.26 µM.
Regarding `Cc1cc(-c2nc3ccc(O)cc3s2)ccc1N`, the GI50 in test [1] is 29.2 µM; in [2], 31.1 µM; in test [3], 88.3 µM; in test [4], 82.8 µM; in test [10], 95.5 µM; in test [5] it was 76.8 µM. Also, the GI50 in test [6] is 36.9 µM; in test [7], 43.9 µM; in test [8] it was 46 µM. Moreover, the TGI in test [1], in test [2], in test [3], in [4], in test [10] and in test [5] was more than 100 µM throughout. Also, the TGI in [6], in [7] and in [8] was more than 100 µM each time.
Turning to `Cn1c2ccc([N+](=O)[O-])cc2c(=O)c2c(O)cc(O)cc21`, the TGI in test [9] is 55.2 µM; in test [1] it was 47 µM; in test [3] it was more than 100 µM; in test [4] it was 64.6 µM; in test [10], more than 100 µM; in test [5] it was more than 100 µM. In addition, the TGI in test [8] is more than 100 µM.
As for `Cc1nn2c(/C=C3/C(=O)Nc4ccccc43)c(-c3ccc(Cl)cc3)nc2s1`, the concentration for 50% growth inhibition (GI50) in test [9] was 0.0174 µM; in test [1], 9.95 µM; in test [2], 22.4 µM; in [3], 39.5 µM; in [10], 27.7 µM; in test [5] it was 12.3 µM. Also, the GI50 in test [8] was 10.5 µM. The TGI was 1.27 µM in test [9]; 24.2 µM in test [1]; more than 50 µM in [2]; more than 50 µM in test [3]; more than 50 µM in [10]; 32.1 µM in test [5]. The molecule also displayed a TGI in [8] of 32.6 µM.
Regarding `COc1ccc(/C=C(\C#N)c2cc(OC)c3c(c2)OCO3)cc1`, the GI50 in test [9] is less than 0.0131 µM; in test [1] it was less than 0.0215 µM; in test [2], less than 0.0125 µM; in test [3], less than 0.01 µM; in [10], 0.01 µM; in test [5], 0.56 µM. Further, the values for the GI50 in test [6], in [7] and in test [8] were less than 0.0111 µM, less than 0.0121 µM and 0.0278 µM, respectively. The TGI in [9] was found to be 11.5 µM; in test [1], 17.2 µM; in [2] it was 24.1 µM; in [10] it was 39.1 µM; in test [5] it was 41.1 µM; in [6], 0.458 µM. The TGI in test [7] was 4.39 µM; in [8] it was more than 100 µM.

For the origin of these results see PubChem BioAssay (NCI).
